The text below walks through data of patent publication US6787359B1, “Gene transfer methods” (Takara Shuzo Co., Ltd., priority 1998, dated 2004).

The subject of one data set is HL-60 cells. In kind it is cell-based, human. The following applies: no washing. How it is done: (§1) Recombinant retrovirus-producer cells obtained by introducing a retrovirus vector plasmid pLEIN into φCRIP cells were cultured in DMEM containing 10% CS. When the cells grew to semi-confluence in a 10-cm plate, the medium was changed to 7 ml of RPMI 1640 containing 10% FCS or 7 ml of RPMI 1640 containing 5 mM sodium butyrate (Nacalai Tesque) and 10% FCS. After the cells were cultured for 24 hours, supernatants were filtered through 0.45 μm filters to obtain virus supernatants. The titer of the virus supernatant was determined as described in Example 2. The titer of the virus supernatant without sodium butyrate was 3.3×10^4 cfu/ml, whereas the titer of the virus supernatant containing 5 mM sodium butyrate was 2×10^6 cfu/ml.
HL-60 cells were used as target cells. 0.5 ml of the above-mentioned virus supernatant was added to each well of a plate coated with CH-296 as described in Example 12. The plate was incubated at 37° C. for 3 hours for contacting and binding the virus particles with CH-296. After incubation, the plate was […]. 0.5 ml of RPMI 1640 medium supplemented with 10% FCS containing 5×10^4 HL-60 cells was added to the well. As a control, 5×10^4 HL-60 cells were suspended in 0.5 ml of the above-mentioned virus supernatant and then immediately added to the plate coated with CH-296. These plates were incubated at 37° C. overnight to allow the virus to infect cells. After the incubation, 1 ml of RPMI 1640 medium containing 10% FCS was added to the well. The plate was incubated for additional 48 hours. The cell number was then counted.

Another data set concerns NIH/3T3 cells. Put plainly: Titer of virus supernatant of producer cells cultured with sodium butyrate. In kind it is cell-based. Particulars: φCRIP/pLEIN producer cells cultured 24 hours with 5 mM sodium butyrate; without: 3.3×10^4 cfu/ml. How it is done:
The titer of the virus supernatant was measured according to a standard method [J. Virol., 62:1120-1124 (1988)] in which the efficiency of transferring a neomycin phosphotransferase gene into NIH/3T3 cells (ATCC CRL-1658) is used as an index. The number of infectious particles contained in 1 ml of the supernatant (cfu/ml) was calculated. The amount of the virus supernatant to be added in the experiments hereinbelow was determined based on the calculated value, i.e., the titer of the supernatant.
as §1

In data set [1] the test system is L1210 cells. Put plainly: Eco-EGFP gene transfer on plates with covalently immobilized CH-271 and (Mannose)9-(GlucNAc)2-Asn. In kind it is cell-based, mouse. Particulars: wells with sugar chain and CH-271 immobilized. How it is done: A microplate to which CH-271 and (Mannose)9-(GlucNAc)2-Asn were immobilized through covalent bonds was prepared. […] 50 μl each of solutions containing 2% BSA or 80 μg/ml of CH-271 as well as (Mannose)9-(GlucNAc)2-Asn at a varying concentration was added to each well of the activated 96-well Carboplate. The plate was subjected to immobilization reaction at 37° C. for 2 hours. The plate was blocked using 0.2% glycine solution at 4° C. for 15 hours and then used for the following gene transfer experiments.
10^3 L1210 cells and 0.1 ml Eco-EGFP virus supernatant (10^6 cfu/ml) were added to the well of the microplate. After the plate was incubated for 48 hours, 0.1 ml of fresh RPMI 1640 medium containing FCS, penicillin and streptomycin was added to the well. The plate was incubated for additional 24 hours. The cells were collected and washed. The gene transfer efficiency was calculated as described in Example 4.

Data set [2] concerns mouse leukemia L1210 cells. The data set can be described thus: Gene transfer with PM5neo virus on coated plates, G418-resistant cells by WST-1 absorbance. The class given is cell-based. The following applies: for Absorbance difference (450 nm-650 nm), G418-resistant cells: Experiment 2. How it is done: 50 μl of […] solution of H-271, H-296, C-274, CH-271, CH-296, ColV, human basic fibroblast growth factor (bFGF; Progen), tenascin (Gibco) or epidermal growth factor (EGF; Takara Shuzo), or 50 μl of 2% bovine serum albumin (BSA, Sigma) was added to each well of a 96-well non-treated microplate for cell culture (Falcon). The plate was allowed to stand at 4° C. overnight and then washed twice with phosphate buffered saline (PBS; Roman Kogyo). Alternatively, after the plate was treated as described above, 0.1 ml of 4 mg/ml solution of 1-ethyl-3-dimethylaminopropylcarbodiimide hydrochloride (Sigma) in sterile pure water was dispensed to each well. The reaction was allowed to proceed at 37° C. for 2 hours. The plate was washed extensively with pure water to prepare a carbodiimide-treated plate. These plates were stored at 4° C. until viral infection experiments were conducted.
10^4 mouse leukemia L1210 cells (ATCC CCL-219), which had been grown in RPMI 1640 medium (Bio Whittaker) supplemented with 10% FCS, 50 units/ml penicillin and 50 μg/ml streptomycin, and 50 μl of PM5neo virus supernatant (10^4 cfu/ml) were added to the well of the microplate. After the plate was incubated for 24 hours, the medium was changed to the same medium containing G418 (Gibco) at a final concentration of 0.75 mg/ml, and the plate was then incubated for additional 48 hours. G418-resistance cells were assessed according to the method as described in S. Kim et al. [Gene Therapy, 3:1018-1020 (1996)] with a partial modification in which color developed using Premix WST-1 reagent (Takara Shuzo) was measured as absorbance at 450 nm. […] Absorbance at 450 nm and 650 nm was then measured using a microplate reader, and the difference (450 nm-650 nm) was calculated. The value obtained using a plate coated with 2% BSA without carbodiimide treatment was defined as background.

For data set [3], the system named is mouse leukemia L1210 cells. The data set can be described thus: Effect of sugar chain-cleaving enzymes on CH-271/laminin plates, PM5neo gene transfer, G418-resistant cells. The class given is cell-based. The protocol:
A 96-well microplate was coated using 50 μl/well of a mixture containing 5 μg/ml of mouse laminin and 80 μg/ml of CH-271 as described in Example 5. Effects of treatment of the plate with various enzymes having activities of cleaving sugar chains on gene transfer efficiency were examined.
Plates were treated with enzymes as follows: Enzyme solutions containing 500 mU/ml O-glycanase (endo-α-N-acetylgalactosaminidase, Seikagaku Corp.), 500 mU/ml endoglycosidase H (endo-β-N-acetylglucosaminidase H, Seikagaku Corp.), 250 mU/ml endo-β-galactosidase (Seikagaku Corp.) and 2 mU/ml α-mannosidase (Seikagaku Corp.) in 50 mM citrate-phosphate buffer (pH 5.0) were prepared. An enzyme solution containing 250 mU/ml glycopeptidase F (peptide: N-glycosidase F, Takara Shuzo) in 100 mM tris-hydrochloride buffer (pH 8.6) was prepared. 50 μl each of the enzyme solutions was dispensed in each well for reacting at 37° C. for 20 hours. The plate was then washed three times with PBS and then used for viral infection experiments. 10^4 mouse leukemia L1210 cells grown in RPMI 1640 medium supplemented with 10% FCS, 50 units/ml penicillin and […], and 50 μl of PM5neo virus supernatant (10^4 cfu/ml) were added to each well of the microplate. The plate was incubated for 24 hours. […] G418-resistance cells were assessed as described in Example 3.

Data set [4] relates to L1210 cells. The data set can be described thus: Eco-EGFP gene transfer with laminin and virus-binding substance, flow cytometry. In kind it is cell-based, mouse. The following applies: no CH-296/CH-271. How it is done: Mouse laminin (Gibco) or human laminin (Takara Shuzo) was used in combination with a functional substance having an activity of binding to a virus to carry out gene transfer experiment. A 24-well non-treated microplate for cell culture (Falcon) used in the experiment was coated with these functional substances according to the following two methods.
The cocktail method: A mixture of two functional substances is added to the plate. The plate is allowed to stand at 4° C. overnight. The plate is blocked with 2% BSA at 37° C. for 20 minutes and then washed with PBS.
The pre-coating method: A solution of a functional substance having an activity of binding to a virus is added to the plate. The plate is allowed to stand at 4° C. overnight. The solution is removed. A laminin solution is added to the plate. The plate is incubated at 37° C. for 2 hours, blocked with 2% BSA, and then washed with PBS.
0.5 ml of the solution of the functional substance was used to coat each well. 10^5 L1210 cells and 0.5 ml of Eco-EGFP virus supernatant (10^5 cfu/ml) were added to the well. The plate was incubated for 24 hours. After incubation, the cells were collected by using a cell detachment buffer (Bio Whittaker) and washed. EGFP-expressing cells were analyzed by flow cytometry using FACSVantage (Becton Dickinson) at an excitation wavelength of 488 nm and an emission wavelength of 515-545 nm. The gene transfer efficiency (the ratio of EGFP-expressing cells to total cells) was calculated.
Background: A flow cytometer gives signals particle by particle.

Setting [5] is: Control: cells suspended in supernatant with sodium butyrate, added to CH-296 plate.
[6] abbreviates: plate treated with carbodiimide.

Take `CCCC(=O)[O-].[Na+]` [sodium butyrate]: in the data set with HL-60 cells (setting [5]), the “Cell number (cells/plate)” value is given as 4.0 x 10^5 cells/plate and the “Gene transfer efficiency (%)” value stood at 35.46%. Further, in the data set on HL-60 cells (control group), the “Viable cell number relative to supernatant without sodium butyrate” value is given as “one fourth”. Further, the “Titer of the virus supernatant” value in the data set on NIH/3T3 cells is reported as 2×10^6 cfu/ml.
Regarding (Mannose)9-(GlucNAc)2-Asn, the “Gene transfer efficiency (in words)” value with L1210 cells [1] is on record as “increased depending on the concentration of sugar chain used”.
On to Tenascin: tenascin (Gibco), for which the “Absorbance difference (450 nm-650 nm), G418-resistant cells” value in data set [2] (setting [6]) worked out at 0.323 ± 0.037; in data set [2] (plate untreated), 0.060 ± 0.021. In data set [2] (carbodiimide treatment carried out), the “Appearance of G418-resistant cells (in words)” value is given as “increased”.
For “bFGF: human basic fibroblast growth factor (Progen)”, the figures for the “Absorbance difference (450 nm-650 nm), G418-resistant cells” value in data set [2] (setting [6]) and in data set [2] (plate untreated) were 0.580 ± 0.046 and 0.425 ± 0.014, respectively. The “Gene transfer efficiency (in words)” value in data set [2] (known virus-binding substances, Table 1) is given as “increase in gene transfer efficiency was observed”.
Turning to laminin, in data set [3] (treatment of the plate with endoglycosidase H), the “Gene transfer-promoting effect of laminin after enzyme treatment (in words)” value is listed as “completely abolished”. Also, the “Gene transfer efficiency after enzyme treatment (in words)” value in data set [3] (treatment of the plate with α-mannosidase or glycopeptidase F) is on record as “decreased the gene transfer efficiency in some degree”. The Gene transfer efficiency in the data set with L1210 cells [4] (laminin 5 μg/ml alone) amounted to 4.09%; with L1210 cells [4] (laminin 10 μg/ml alone) it was 6.76%; in the data set with L1210 cells [4] (laminin 20 μg/ml alone), 6.89%.
